Data taken from patent US20140255358A1, “GENERATION OF IMMUNOSUPPRESSIVE MYELOID CELLS USING PGE2” (priority 2011, published 2014).

Columns and labels:
Type in all cases: cell-based, human
[1] = test system: myeloid suppressive cells; test: Induction of immunosuppressive factor mRNA by PGE2 and EP agonists (FIG. 3)
Text: FIG. 3. PGE2, EP4 and EP2 agonists mediate enhanced development of MDSCs. […] All data were confirmed in 3-7 independent experiments. Bar graphs present data of a single representative experiment with different donors as mean±s.d.

[2] = test system: differentiating monocytes; test: Six-day GM-CSF and IL-4-supplemented cultures of differentiating monocytes: phenotype, suppressive factors, CD8+ T cell suppression (FIG. 2)
Text: PGE2 acts on four subtypes of G protein-coupled receptors designated EP1, EP2, EP3, and EP4, among which EP2 and EP4 signaling is coupled to rise in cAMP concentration.
FIG. 2. PGE2 redirects DC differentiation and induces CD14^+CD33^+CD34^+ cells with the phenotype and function similar to monocytic MDSCs. (A) Phenotype of PGE2-induced CD1a^−CD14^+CD80^−CD83^− suppressive cells expressing inhibitory molecules ILT2, ILT3, ILT4, PDL-1, but not PDL-2. PGE2-induced suppressive cells express E-prostanoid receptors (labeled with α-EP1-, α-EP3- sec.Alexa488 and α-EP2-, α-EP4-PE). […] (bottom) Expression of immunosuppressive factors IL10, IDO1, IL4Rα and COX2 in PGE2-induced suppressive cells. (C) Immunosuppressive effects of PGE2-induced suppressive cells on allogeneic naïve CFSE-labeled CD8^+ T cells primed by CD3/CD28 and stained for granzyme B. Left panel: Percentages indicate the fraction of proliferating granzyme B^+ (marker of CTL status) CD8^+ cells. Right panel: Percentage of proliferating CD8^+ T cells in the presence of PGE2-induced suppressive cells (PGE2-d0) and PGE2-conditioned DCs (PGE2-d6). All data (panels A-C) were confirmed in at least 3 independent experiments. Bar graphs present data of a single representative experiment with different donors as mean±s.d. P<0.05 marked *; P<0.01 marked **; P<0.001 marked ***.

[3] = test system: PGE2-induced myeloid suppressive cells; test: Dose-dependent induction of immunosuppressive factors with or without IL-4 (FIG. 4); settings: presence or absence of IL-4
Text: FIG. 4 Minimal requirement for high doses of PGE2 in the functional induction of myeloid suppressive cells, regardless of the presence or absence of IL-4. (A) Dose-dependent expression of immunosuppressive factors IL10, IDO1, IL4Rα and COX2 in PGE2-induced suppressive cells, generated in the presence or absence of IL-4. Histograms present data of a single representative experiment with different donors as mean±s.d.

[4] = test system: monocytes isolated from healthy blood donors; test: Induction of COX2 and suppressive factors in short-term cultured monocytes (FIG. 1)
Experimental: FIG. 1. The induction of endogenous COX2 and MDSC-associated suppressive factors in monocytes by PGE2. (A) Expression of COX2 mRNA (A, left) and protein (A, right) levels in monocytes isolated from healthy blood donors is induced by synthetic PGE2. Regulation of COX1 and COX2 expression by synthetic PGE2 was analyzed after 6-10 h. […] All data (panels A-B) were confirmed in at least 3 independent experiments. Bar graphs present data of a single representative experiment with different donors as mean±s.d. P<0.05 marked *; P<0.01 marked **; P<0.001 marked ***.

suppressive cells = test: Yield of ex vivo generated cells (FIG. 5); settings: N=12 donors, mean
Text: Yield of PGE2-induced myeloid suppressive cells was similar as the yield of iDCs and TNF-a matured DCs (FIG. 5). FIG. 5. PGE2 allows for ex vivo generation of high numbers of suppressive cells. […] Histograms present data of individual experiments (N=12) with different donors as mean±s.d.

CCCC1([C@H](O)C/C=C/[C@H]2[C@H](O)CC(=O)[C@@H]2CCCCCCC(=O)OC)CCC1 [Butaprost]
induction of immunosuppressive factors arginase, IDO1, NOS2, IL-4Rα, IL10 and COX2 mRNA [1]: induced high levels

CCCCC[C@H](O)/C=C/[C@H]1[C@H](O)CC(=O)[C@@H]1C/C=C\CCCC(=O)O [PGE2, (5Z,11 alpha,13E,15S)-11,15-dihydroxy-9-oxoprosta-5,13-dien-1-oic acid]
induction of CD1a+CD14- DCs ([2]; added to GM-CSF and IL-4-supplemented cultures of differentiating monocytes): abolished the induction of CD1a^+CD14^− DCs
CTL-suppressive function ([2]; added to GM-CSF/IL-4-supplemented monocyte cultures): sufficient to induce the CTL-suppressive function
IL-10 production ([2]; after 6 days of culture): 261 pg/mL
induction of IL4Rα [3]: less pronounced, but also significant
production of IL-10, ARG-1, NOS2 and IDO1 [3]: dose-dependently induced
expression of additional immunosuppressive factors IDO1, NOS2, IL-10, IL4Rα [4]: induced the expression
expression of endogenous COX2 ([4]; analyzed after 6-10 h): start expressing endogenous COX2
induction of immunosuppressive factors arginase, IDO1, NOS2, IL-4Rα, IL10 and COX2 mRNA [1]: Induction of immunosuppressive factors
yield of cells (suppressive cells): 48.6%

O=C1CC[C@H](/C=C/[C@@H](O)Cc2ccccc2)N1CCCCCCc1nn[nH]n1 [CAY10598]
induction of immunosuppressive factors arginase, IDO1, NOS2, IL-4Rα, IL10 and COX2 mRNA [1]: induced high levels

TNF-α
yield of cells (suppressive cells): 36.9%
